Test results as given in patent US7842488B2, “Polynucleotides encoding a human 3-phosphoinositide- dependent protein kinase” (Medical Research Council, priority 1997, dated 2010).

Legend:
PDK1 [1] = assay: Phosphorylation of GST-PKBα by PDK1 with [γ32P]ATP; assay type: biochemical, rabbit; conditions: lipid 10 μM in PtdCho/PtdSer vesicles
Experimental: Solutions were stored at 4° C. at concentrations 10-fold higher than those required in the assay and used within 2-4 days.
Phosphorylation of GST-PKB ? by PDK1. The incubations were identical to the Stage 1 described above except that [γ^32P] ATP (200-400 cpm/pmol) was used instead of unlabelled ATP. The reactions were terminated by making the solution 1% (by mass) in SDS. […] The Coomassie blue-staining bands corresponding to GST-PKBα were excised and the ^32P-radioactivity associated with each band was quantified.

GST-DSTPK61 = molecular target: T1, GST-DSTPK61 (Drosophila melanogaster, UniProt Q9W0V1); assay: GST-DSTPK61 assay: activation and phosphorylation of GST-PKBα; assay type: biochemical; conditions: lipid 10 μM in PtdCho/PtdSer vesicles
T1 construct: residues 1-752 of DSTPK61 in E. coli as fusion proteins; made in house; host or cells: E. coli (pGEX-3X)
Experimental: (§1) FIG. 12. […] In panels A and C, the assays were terminated by making the incubations 1% (by vol) in TRITON X-100™ (see Ref 21), and the increase in specific activity of GST-PKBα was determined. In panels B and D, the reactions were terminated by making the solutions 1% in SDS, the samples were subjected to SDS/polyacrylamide gel electrophoresis, and the phosphorylation was assessed by autoradiography of the Coomassie blue-stained band corresponding to GST-PKBα.
(§2) One unit of PDK1 activity was defined as that amount required to increase the basal activity of GST-PKBα by 1 unit of activity in one min.

GST-PDK1 = molecular target: T2, GST-PDK1 (Homo sapiens, UniProt O15530); assay: GST-PDK1 assay: activation and phosphorylation of GST-PKBα; assay type: biochemical; conditions: for activation and phosphorylation of GST-PKBα by GST-PDK1 (in words): lipid 10 μM in PtdCho/PtdSer vesicles
T2 construct: Residues 52-556 of PDK1 were expressed in human embryonic kidney 293 cells; made in house; host or cells: human embryonic kidney 293 cells (pEBG2T)
T2 sequence (O15530 52-556): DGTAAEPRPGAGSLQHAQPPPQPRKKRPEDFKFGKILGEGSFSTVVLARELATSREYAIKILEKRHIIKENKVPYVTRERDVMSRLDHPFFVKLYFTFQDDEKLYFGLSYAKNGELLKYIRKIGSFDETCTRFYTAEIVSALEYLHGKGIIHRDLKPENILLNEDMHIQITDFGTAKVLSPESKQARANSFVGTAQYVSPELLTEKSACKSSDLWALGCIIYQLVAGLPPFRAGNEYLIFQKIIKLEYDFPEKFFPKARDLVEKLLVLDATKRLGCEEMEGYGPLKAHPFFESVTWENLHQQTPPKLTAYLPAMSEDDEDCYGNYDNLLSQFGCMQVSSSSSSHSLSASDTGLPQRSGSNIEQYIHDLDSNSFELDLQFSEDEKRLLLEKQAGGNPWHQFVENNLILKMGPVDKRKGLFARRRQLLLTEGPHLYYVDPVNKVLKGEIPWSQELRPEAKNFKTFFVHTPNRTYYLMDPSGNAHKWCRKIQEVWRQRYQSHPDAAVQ
Experimental: as §1, §2

PDK1 [2] = assay: PDK1 assay: activation of GST-PKBα by purified PDK1 with phospholipid vesicles; assay type: biochemical, rabbit; conditions: for activation of PDK1 (in words) / fold-activation of GST-PKBα (PDK1 activity): lipid 10 μM in vesicles of 100 μM PtdCho, 100 μM PtdSer, 30 min at 30° C.; for order of level of activation of the 3-phosphoinositide-dependent kinase (most effective first): rabbit skeletal muscle PDK1, FIG. 6
Experimental: (§3) Assay of PDK1. The assay was carried out in two stages; in the first, GST-PKBα was incubated with PDK1 in the presence of MgATP and phospholipid vesicles to permit activation of GST-PKBα.
(§4) After 10 min at 30° C., the reactions were terminated by spotting the reaction mixture on to p81 phosphocellulose paper. The papers were washed in phosphoric acid and analysed as described previously. […] The basal GST-PKBα activity is the activity measured in the absence of PDK1.

PKB = PKB (Homo sapiens, UniProt P31749); conditions: cited from earlier work
GST-ΔPH-PDK1 = molecular target: T3, GST-ΔPH-PDK1 (Homo sapiens, UniProt O15530); assay: GST-ΔPH-PDK1 assay: activation of GST-PKBα; assay type: biochemical; conditions: lipid 10 μM in PtdCho/PtdSer vesicles
T3 construct: expressed as a GST-fusion protein in 293 cells (GST-ΔPH-PDK1, residues 1-450); made in house; host or cells: human embryonic kidney 293 cells (pEBG-2T)
Experimental: FIG. 15. Role of the PH domains of PKBα and PDK1. […] The assays were terminated by making the incubations 1% (by vol) in Triton X-100 as in Example 1, and the increase in specific activity of GST-PKBα was determined. The basal activity of GST-PKBα was 2.5 U/mg and that of GST-ΔPH-PKBα was 8 U/mg. At the high concentration of GST-PDK1 used in this assay the rate of activation of full length wild type GST-PKBα is not linear with time whereas the activation of GST-ΔPH-PKBα is linear. When the experiments are carried out at 20-fold lower concentrations of GST-PDK1 a similar extent of activation of wild-type GST-PKBα is achieved as that shown in the figure for GST-ΔPH-PKBα by 2.3 nM GST-PDK1. (B) as in (A) except that 0.5 μg of GST-PKBα was incubated with 2.5 nM […] in the presence of phospholipid vesicles containing 100 μM PtdCho, 100 μM PtdSer and 10 μM of either, sn-1-stearoyl-2-arachidonyl-D-PtdIns(3,4,5)P3 (Track 1); sn-1-stearoyl-2-arachidonyl-L-PtdIns(3,4,5)P3 (Track 2), sn-1,2 di-palmitoyl-D-PtdIns(3,4,5)P3 (Track 3), sn-1,2 di-palmitoyl-D-PtdIns(3,4,5)P3 (Track 4), PtdIns(4,5)P2 (purified from Folch brain fraction Track 5) and sn-1,2 di-palmitoyl-D-PtdIns-3P (Track 6). The results are presented as the increase in the specific activity of GST-PKBα (U/mg), (±SEM for 6-9 determinations, three independent experiments), relative to a control incubation in which GST-PDK1 is omitted.
Assay of GST-PDK1 and GST-DSTPK61 activity. GST-PDK1 and GST-DSTPK61 were diluted appropriately in Buffer B containing 1 mg/ml bovine serum albumin, and assayed for their ability to activate and phosphorylate GST-PKBα [21]. One unit of PDK1 activity was defined as that amount required to increase the basal activity of GST-PKBα by 1 unit of activity in one min. One unit of GST-PKBα activity was that amount of enzyme required to catalyse the phosphorylation of 1 nmol of the peptide RPRAATF (SEQ ID NO: 9) in 1 min in an assay containing 0.1 mM RPRAATF (SEQ ID NO: 9)). […]

GST-PKBα [3] = assay: Activation of GST-PKBα after stimulation of transfected 293 cells; assay type: cell-based, human; conditions: versus unstimulated 293 cells
Description: Expression of GST-PKBα in 293 cells. The DNA sequence encoding PKBα was subcloned into the eukaryotic expression vector PEBG2T that has been used to overexpress GST-fusion proteins in eukaryotic cells under an EF1α promoter. A PCR reaction was set up to generate a full length cDNA encoding the PKBα gene with a BamH1site at the 5′ end of the cDNA that is in frame with the GST sequence of the PEBG2T vector and the ATG initiation codon of PKBα, and a KpnI site at the 3′ end, using the human PCMV5-HA-PKBα plasmid. The DNA sequence of the BamH1/KpnI cDNA fragment was checked and then subcloned into the unique BamH1/KpnI restriction sites on the pEBG 2T expression vector. In order to prepare GST-PKBα, 40, 10 cm diameter dishes of human embryonic kidney 293 cells were cultured and each dish transfected with 20 μg of GST PKBα expression construct using the modified calcium phosphate method described previously for overexpression of haemaglutinin tagged PKBα in 293 cells. […]

GST-PKBα [4] = molecular target: T4, GST-PKBα (Homo sapiens, UniProt P31749); assay: GST-PKBα activity and phosphorylation with lipids in the absence of PDK1; assay type: biochemical; conditions: same conditions as PDK1 activation
T4 construct: generate a full length cDNA encoding the PKBα gene; made in house; host or cells: human embryonic kidney 293 cells (pEBG2T), serum starved
Experimental: as §3, §4

T3 sequence (P31749 whole entry partner, the tested form may be a part): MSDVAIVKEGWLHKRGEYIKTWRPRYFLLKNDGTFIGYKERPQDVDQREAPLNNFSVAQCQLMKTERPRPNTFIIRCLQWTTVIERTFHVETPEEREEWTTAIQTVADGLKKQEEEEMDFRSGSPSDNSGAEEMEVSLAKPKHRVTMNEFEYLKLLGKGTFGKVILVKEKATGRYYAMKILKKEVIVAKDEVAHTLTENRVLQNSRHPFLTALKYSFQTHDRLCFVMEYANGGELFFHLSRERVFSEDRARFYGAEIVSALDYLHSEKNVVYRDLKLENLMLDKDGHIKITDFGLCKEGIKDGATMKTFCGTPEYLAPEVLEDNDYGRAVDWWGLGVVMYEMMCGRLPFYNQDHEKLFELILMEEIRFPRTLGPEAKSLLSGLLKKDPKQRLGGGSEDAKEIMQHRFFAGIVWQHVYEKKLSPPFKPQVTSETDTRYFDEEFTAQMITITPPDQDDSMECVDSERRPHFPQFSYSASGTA
T3 sequence (O15530 1-450, stated change not applied): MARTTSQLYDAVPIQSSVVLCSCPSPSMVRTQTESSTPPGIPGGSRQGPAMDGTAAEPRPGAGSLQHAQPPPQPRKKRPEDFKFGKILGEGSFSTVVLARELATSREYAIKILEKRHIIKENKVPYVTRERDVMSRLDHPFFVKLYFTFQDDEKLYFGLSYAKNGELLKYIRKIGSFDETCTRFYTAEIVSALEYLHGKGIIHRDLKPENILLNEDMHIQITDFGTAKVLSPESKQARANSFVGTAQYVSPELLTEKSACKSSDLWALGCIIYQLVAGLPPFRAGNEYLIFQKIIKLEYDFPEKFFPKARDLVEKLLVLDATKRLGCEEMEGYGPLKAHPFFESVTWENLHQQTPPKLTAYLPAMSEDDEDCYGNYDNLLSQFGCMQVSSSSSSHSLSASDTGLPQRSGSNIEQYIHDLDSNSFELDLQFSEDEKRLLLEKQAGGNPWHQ
T1 sequence (Q9W0V1 85-836 Q200H/Q201E/Q317A/G443R): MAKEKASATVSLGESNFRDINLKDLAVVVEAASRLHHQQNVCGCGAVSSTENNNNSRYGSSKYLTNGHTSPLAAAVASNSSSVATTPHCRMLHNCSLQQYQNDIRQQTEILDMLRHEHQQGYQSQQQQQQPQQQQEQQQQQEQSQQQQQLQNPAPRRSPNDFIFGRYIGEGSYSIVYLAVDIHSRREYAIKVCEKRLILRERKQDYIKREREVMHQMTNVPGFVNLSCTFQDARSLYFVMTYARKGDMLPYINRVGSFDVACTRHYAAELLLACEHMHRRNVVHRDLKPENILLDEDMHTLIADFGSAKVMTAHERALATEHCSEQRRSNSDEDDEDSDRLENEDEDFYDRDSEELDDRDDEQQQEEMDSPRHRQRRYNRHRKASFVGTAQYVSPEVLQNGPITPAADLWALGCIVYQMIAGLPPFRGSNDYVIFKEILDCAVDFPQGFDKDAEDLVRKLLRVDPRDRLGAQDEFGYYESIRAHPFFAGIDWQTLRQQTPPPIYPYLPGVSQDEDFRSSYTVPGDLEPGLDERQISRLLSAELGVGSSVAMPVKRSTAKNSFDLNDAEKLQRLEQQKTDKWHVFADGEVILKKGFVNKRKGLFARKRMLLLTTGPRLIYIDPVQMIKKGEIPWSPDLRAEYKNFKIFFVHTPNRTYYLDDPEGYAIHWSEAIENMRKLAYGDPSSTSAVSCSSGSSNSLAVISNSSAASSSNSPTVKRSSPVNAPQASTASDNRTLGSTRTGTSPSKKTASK
Sequence of PKB (P31749 whole entry, species assumed): as the sequence (P31749 whole entry partner, the tested form may be a part) above
T4 sequence (P31749 whole entry): as the sequence (P31749 whole entry partner, the tested form may be a part) above

Compound: PtdIns(4,5)P2 [Lipid 9]
- phosphorylation of GST-PKBα by PDK1 (in words) (PDK1 [1]): did not activate PDK1 or induce the phosphorylation
- activation and phosphorylation of GST-PKBα by GST-DSTPK61 (in words) (GST-DSTPK61): no activation or phosphorylation
- activation and phosphorylation of GST-PKBα by GST-PDK1 (in words) (GST-PDK1): no activation or phosphorylation
- activation of PDK1 (in words) (PDK1 [2]): no significant activation
- activation of PDK1 (in words) (PDK1 [2]; listed as PtdIns(4,5)P2): did not activate PDK1 at all
- activation of PDK1 (in words) (PDK1 [2]; listed as lipid 9): did not activate PDK1
- fold lower affinity of PKB than for PtdIns(3,4,5)P3 or PtdIns(3,4)P2 (PKB): 10 fold

Compound: CCCCCCCCCCCCCCCC(=O)OCC(COP(=O)(O)OC1C(O)C(O)C(OP(=O)(O)O)C(OP(=O)(O)O)C1O)OC(=O)CCCCCCCCCCCCCCC (stereo not shown) [Lipid 7, sn-1,2 di-palmitoyl PtdIns(3,4)P2]
- activation and phosphorylation of GST-PKBα by GST-PDK1 (in words) (GST-PDK1): as effective as sn-1,2-dipalmitoyl D-PtdIns(3,4,5)P3
- fold less effective in activating PDK1 than the sn-1-stearoyl-2-arachidonyl and sn-2-arachidonyl-3-stearoyl derivatives (PDK1 [2]): ~3 fold
- activation of PDK1 (in words) (PDK1 [2]): as effective as sn-1,2-dipalmitoyl D-PtdIns(3,4,5)P3
- fold-activation of GST-PKBα (PDK1 activity) (PDK1 [2]): about 6 fold
- order of level of activation of the 3-phosphoinositide-dependent kinase (most effective first) (PDK1 [2]): 4
- activation of GST-PKBα by GST-ΔPH-PDK1 (in words) (GST-ΔPH-PDK1): very poor

Compound: insulin: insulin used to stimulate 293 cells
- fold activation of GST-PKBα after stimulation of 293 cells (GST-PKBα [3]): 20 fold

Compound: CCCCC/C=C\C/C=C\C/C=C\C/C=C\CCCC(=O)O[C@H](COC(=O)CCCCCCCCCCCCCCCCC)COP(=O)(O)O[C@H]1[C@H](O)[C@@H](OP(=O)(O)O)[C@H](OP(=O)(O)O)[C@@H](OP(=O)(O)O)[C@H]1O [Lipid 1, sn-1-stearoyl, 2-arachidonyl D-phosphatidylinositol 3,4,5-trisphosphate]
- activation of PDK1 (in words) (PDK1 [2]): potently activated PDK1
- fold-activation of GST-PKBα (PDK1 activity) (PDK1 [2]): 13 fold
- activation of GST-PKBα by GST-ΔPH-PDK1 (in words) (GST-ΔPH-PDK1): activated more effectively

Compound: CCCCC/C=C\C/C=C\C/C=C\C/C=C\CCCC(=O)OC(COC(=O)CCCCCCCCCCCCCCCCC)COP(=O)(O)OC1C(O)C(OP(=O)(O)O)C(OP(=O)(O)O)C(OP(=O)(O)O)C1O (single isomer, unassigned) [Lipid 2, L-enantiomer of sn-1-stearoyl-2-arachidonyl PtdIns(3,4,5)P3]
- activation of PDK1 (in words) (PDK1 [2]): no significant activation
- fold-activation of GST-PKBα (PDK1 activity) (PDK1 [2]; 2-arachidonyl PtdIns(3,4,5)P3): 1.7 fold
- activation of PDK1 (in words) (PDK1 [2]; listed as L-enantiomer of sn-1-stearoyl-2-arachidonyl PtdIns(3,4,5)P3): almost ineffective
- order of level of activation of the 3-phosphoinositide-dependent kinase (most effective first) (PDK1 [2]): 2
- activation of GST-PKBα by GST-ΔPH-PDK1 (in words) (GST-ΔPH-PDK1): no activation

Compound: Phosphatidylinositol 3,4-bisphosphate [PtdIns(3,4)P2]
- activation and phosphorylation of GST-PKBα by GST-DSTPK61 (in words) (GST-DSTPK61): activated and phosphorylated GST-PKBα
- activation and phosphorylation of GST-PKBα by GST-PDK1 (in words) (GST-PDK1): activated and phosphorylated GST-PKBα
- fold enhancement of PDK1 activity in the presence of the inositol phospholipid (GST-PDK1; versus absence of PtdIns(3,4,5)P3 or PtdIns(3,4)P2): about 1000 fold
- activation of PDK1 (in words) (PDK1 [2]): only active in the presence of low micromolar concentrations
- affinity of binding to PKB (in words) (PKB; via the N-terminal PH domain): micromolar affinity
- activation, inhibition or phosphorylation of GST-PKBα in the absence of PDK1 (GST-PKBα [4]): no effect
